pIC50: −log10 of the molar value. Where only a bound is given, the exact number is not on record here.

Data set [1] deals with Wnt signaling. Nature of the data set: Wnt-Luc reporter assay for pathway inhibition of Wnt signaling. Format: cell-based, mouse (TM3 Wnt-Luc) or human (293 Wnt-Luc); not stated which. As to conditions: Wnt-Luc reporter cells co-cultured with L-cell Wnt3a cells, 24 hours. The method in brief:
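Stable STF (Wnt-responsive luciferase) reporter lines, mouse TM3 or human HEK293, co-cultured with Wnt3a-producing L-cells in DMEM with 2% FBS and treated with compound for 24 h. Firefly luciferase read by Bright-Glo; IC50 taken as concentration giving 50% reduction in luminescence.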
In general terms: A reporter such as luciferase makes a cellular process visible.

Data set [2] in a line: Comparative stability in simulated gastric fluid (SGF), degradation by LCMS. As to conditions: 50° C. SGF, LCMS UV peak areas at 254 nm. Format: physicochemical. The protocol:
The stability of exemplified compounds of the invention were compared with N-(hetero)aryl, 2-(heteroy)aryl-substituted acetamides. Test compounds were dissolved or suspended in a specified media (e.g. simulated gastric fluid (SGF)). The resulting solution or suspension was kept at the testing temperature (e.g. 50° C.) for a given time (e.g. 4 hours), and the extent of degradation was quantified by LCMS using the respective UV absorption peak areas at 254 nm.

The mark [3] stands for this setting: luciferase signal reduced by 50%.

As for `Cc1cccnc1-c1ccc(C(=O)NCc2cnc(-c3ccnc(C(F)(F)F)c3)c(C)c2)nc1` [compound 74, N-({5-methyl-6-[2-(trifluoromethyl)pyridin-4-yl]pyridin-3-yl}methyl)-5-(3-methylpyridin-2-yl)pyridine-2-carboxamide], in data set [1] (setting [3]), the pIC50 (as a rule, the IC50 on a negative log10 scale, so that one unit is a factor of ten) was 7.49.
`Cc1cc(-c2ncc(CNC(=O)c3ccc(-c4ncccc4C)cn3)cc2F)ccn1` [compound 75, N-{[5-fluoro-6-(2-methylpyridin-4-yl)pyridin-3-yl]methyl}-5-(3-methylpyridin-2-yl)pyridine-2-carboxamide]: the pIC50 in data set [1] (setting [3]) is 8.16. This pIC50 lies 0.67 log units higher than the previous one.
As for `Cc1cc(-c2ncc(CNC(=O)c3ccc(-c4cc(F)ccc4C)cn3)cc2F)ccn1` [compound 76, 5-(5-fluoro-2-methylphenyl)-N-{[5-fluoro-6-(2-methylpyridin-4-yl)pyridin-3-yl]methyl}pyridine-2-carboxamide], in data set [1] (setting [3]), the pIC50 is 8.92.
In the case of `Cc1ccc(F)cc1-c1ccc(C(=O)NCc2cnc(-c3ccnc(C(F)(F)F)c3)c(C)c2)nc1` [compound 77, 5-(5-fluoro-2-methylphenyl)-N-({5-methyl-6-[2-(trifluoromethyl)pyridin-4-yl]pyridin-3-yl}methyl)pyridine-2-carboxamide], the pIC50 in data set [1] (setting [3]) was 8.20.
Same read-out and setting: under `Cc1cc(C(=O)NCc2cnc(-c3ccnc(C(F)(F)F)c3)c(C)c2)ccc1-c1cnccn1` [compound 78, 3-methyl-N-({5-methyl-6-[2-(trifluoromethyl)pyridin-4-yl]pyridin-3-yl}methyl)-4-(pyrazin-2-yl)benzamide] stands 7.89; under `Cc1cc(C(=O)NCc2cnc(-c3ccnc(C(F)(F)F)c3)c(C)c2)ncc1-c1cnccn1` [compound 79, 4-methyl-N-({5-methyl-6-[2-(trifluoromethyl)pyridin-4-yl]pyridin-3-yl}methyl)-5-(pyrazin-2-yl)pyridine-2-carboxamide], 6.01; under `Cc1cc(-c2ncc(CNC(=O)c3ccc(-c4cc(F)ccc4C)cn3)cc2C)ccn1` [compound 80, 5-(5-fluoro-2-methylphenyl)-N-{[5-methyl-6-(2-methylpyridin-4-yl)pyridin-3-yl]methyl}pyridine-2-carboxamide], 8.38.
Turning to `Cc1cc(-c2cnc(CNC(=O)c3ccc(-c4cnccn4)cn3)c(C)c2)ccn1` [compound 81, N-((2′,5-dimethyl-3,4′-bipyridin-6-yl)methyl)-5-(pyrazin-2-yl)picolinamide], in data set [1] (setting [3]), the pIC50 was 7.70.
In data set [1] (setting [3]), `Cc1cc(C(=O)NCc2cnc(-c3ccnc(C(F)(F)F)c3)c(C)c2)ncc1-c1cc(F)ccc1C` [compound 82, 5-(5-fluoro-2-methylphenyl)-4-methyl-N-({5-methyl-6-[2-(trifluoromethyl)pyridin-4-yl]pyridin-3-yl}methyl)pyridine-2-carboxamide] had a pIC50 of 6.36.
In the case of `Cc1cc(C(=O)NCc2cnc(-c3ccnc(C(F)(F)F)c3)c(C)c2)ncc1-c1cccc(F)c1` [compound 83, 5-(3-fluorophenyl)-4-methyl-N-({5-methyl-6-[2-(trifluoromethyl)pyridin-4-yl]pyridin-3-yl}methyl)pyridine-2-carboxamide], the negative logarithm of the IC50 (pIC50) in data set [1] (setting [3]) was 6.09.
`CC(=O)N1CCN(c2ccc(C(=O)NCc3cnc(-c4ccnc(C(F)(F)F)c4)c(F)c3)nc2)CC1` [compound 84, 5-(4-Acetylpiperazin-1-yl)-N-((3-fluoro-2′-(trifluoromethyl)-2,4′-bipyridin-5-yl)methyl)picolinamide] gave a pIC50 in data set [1] (setting [3]) of 8.57.
For the molecule `O=C(NCc1cnc(-c2ccnc(C(F)(F)F)c2)c(F)c1)c1ccc(-c2cnccn2)cn1` [compound 85, N-({5-fluoro-6-[2-(trifluoromethyl)pyridin-4-yl]pyridin-3-yl}methyl)-5-(pyrazin-2-yl)pyridine-2-carboxamide], in data set [1] (setting [3]), the negative-log IC50 (pIC50) was 9.66.
In data set [1] (setting [3]), `Cc1cc(-c2cnc(CNC(=O)c3ccc(-c4cnccn4)cn3)cc2C)ccn1` [compound 86, N-{[4-methyl-5-(2-methylpyridin-4-yl)pyridin-2-yl]methyl}-5-(pyrazin-2-yl)pyridine-2-carboxamide] gave a pIC50 of 7.77.
The molecule `Cc1cc(-c2cnccn2)cnc1C(=O)NCc1ccc(-c2ccnc(C(F)(F)F)c2)nc1` [compound 87, 3-methyl-5-(pyrazin-2-yl)-N-({6-[2-(trifluoromethyl)pyridin-4-yl]pyridin-3-yl}methyl)pyridine-2-carboxamide] showed a pIC50 in data set [1] (setting [3]) of 7.80.
Regarding `Cc1cc(-c2ncc(CNC(=O)c3ccn(-c4cccc(F)c4)c(=O)c3)cc2C)ccn1` [compound 88, 1-(3-fluorophenyl)-N-{[5-methyl-6-(2-methylpyridin-4-yl)pyridin-3-yl]methyl}-2-oxo-1,2-dihydropyridine-4-carboxamide], the negative-log IC50 (pIC50) in data set [1] (setting [3]) was 8.36.
Turning to `Cc1cc(-c2ccc(CNC(=O)c3ccn(-c4cccc(F)c4)c(=O)c3)cn2)ccn1` [compound 89, 1-(3-Fluorophenyl)-N-((2′-methyl-[2,4′-bipyridin]-5-yl)methyl)-2-oxo-1,2-dihydropyridine-4-carboxamide], the pIC50 in data set [1] (setting [3]) was 7.90.
The molecule `Cc1cc(CNC(=O)c2ccn(-c3cccc(F)c3)c(=O)c2)cnc1-c1ccnc(C(F)(F)F)c1` [compound 90, 1-(3-fluorophenyl)-N-({5-methyl-6-[2-(trifluoromethyl)pyridin-4-yl]pyridin-3-yl}methyl)-2-oxo-1,2-dihydropyridine-4-carboxamide] had a pIC50 in data set [1] (setting [3]) of 8.18.
`Cc1cc(-n2ccc(CNC(=O)c3ccc(-c4cccc(F)c4)cn3)cc2=O)ccn1` [compound 91, 5-(3-fluorophenyl)-N-{[1-(2-methylpyridin-4-yl)-2-oxo-1,2-dihydropyridin-4-yl]methyl}pyridine-2-carboxamide]: the pIC50 in data set [1] (setting [3]) is 8.42.
For `Cc1cn(-c2ccc(CNC(=O)c3ccc(-c4ccccc4)cc3)cc2)cn1` [compound 92, N-(4-(4-methyl-1H-imidazol-1-yl)benzyl)biphenyl-4-carboxamide], in data set [1] (setting [3]), the pIC50 was 9.30.
On to `O=C(NCC1CCN(C(=O)c2ccnc(F)c2)CC1)c1ccc(-c2cccc(F)c2)nc1` [compound 93, N-((1-(2-Fluoroisonicotinoyl)piperidin-4-yl)methyl)-6-(3-fluorophenyl)nicotinamide], for which the pIC50 in data set [1] (setting [3]) is 7.04.
Still for that read-out and setting: the figure for `O=C(NCC1CN(C(=O)c2ccnc(F)c2)C1)c1ccc(-c2cccc(F)c2)nc1` [compound 94, 6-(3-fluorophenyl)-N-({1-[(2-fluoropyridin-4-yl)carbonyl]azetidin-3-yl}methyl)pyridine-3-carboxamide] is 6.54; for `Cc1cc(-c2ccc(CNC(=O)c3ccc(Oc4ccccc4)nc3)cn2)ccn1` [compound 95, N-((2′-methyl-[2,4′-bipyridin]-5-yl)methyl)-6-phenoxynicotinamide] it is 6.38.
The molecule `Cc1cc(C(=O)NCc2cnc(-c3ccnc(C(F)(F)F)c3)c(C)c2)ncc1-c1ncccc1C` [compound 96] gave a pIC50 in data set [1] (Table 2) below 5.70.
The molecule `Cc1cc(-c2ncc(CNC(=O)c3cc(C)c(-c4cccc(F)c4)cn3)cc2C)ccn1` [compound 97] gave a pIC50 in data set [1] (Table 2) below 5.74.
Turning to `Cc1cc(C(=O)NCc2cnc(-c3ccnc(C(F)(F)F)c3)c(C)c2)ncc1-c1cccnc1C` [compound 98], in data set [1] (Table 2), the pIC50 was below 5.92.
Molecule `Cc1cc(C(=O)NCc2cnc(-c3ccnc(C(F)(F)F)c3)c(C)c2)ncc1-c1cccc(F)c1C` [compound 99] gave a pIC50 in data set [1] (Table 2) of 5.96.
For `CC(=O)N1CCN(c2ccc(C(=O)NCc3ccc(-c4ccnnc4)cc3)cc2)CC1` [compound 100], in data set [1] (Table 2), the pIC50 was below 4.70.
As to `Cc1cc(-c2ncc(CNC(=O)c3ccc(-c4cnccn4)cn3)cc2F)ccn1` [drawing 199], in data set [2], the “% degradn. @ 4 hr” value is reported as around 0%, the “% degradn. @ 8 hr” value is on record as around 0. % and the “% degradn. @ 24 hr” value is given as around 0%.
As to `Cc1cc(CNC(=O)c2ccc(-c3cnccn3)cn2)cnc1-c1ccnc(C(F)(F)F)c1` [drawing 200], in data set [2], the “% degradn. @ 24 hr” value is recorded as around 0%.
Consider `O=C(Cc1ccc(-c2ccnnc2)c(C(F)(F)F)c1)Nc1ccc(-c2cccnn2)cn1` [reference compound], for which, in data set [2], the “% degradn. @ 4 hr” value is 11.5%, the “% degradn. @ 8 hr” value is given as 16.6% and the “% degradn. @ 24 hr” value was 26.7%.
Regarding `Cc1cc(CC(=O)Nc2ccc(-c3cccc(F)c3)cn2)cnc1-c1ccnnc1` [reference compound], the “% degradn. @ 24 hr” value in data set [2] was 25.0%.

These data come from patent US9181235B2, “Substituted pyridines for modulating the WNT signaling pathway” (NOVARTIS AG, priority 2010, dated 2015).
